# Results published in US20040166092A1, “Use of viral vectors and charged molecules for gene therapy” (priority 1999, published 2004).
# Key:
# CT-26 flank tumors = experiment: CT-26 flank tumor model; format: in vivo, mouse; conditions: acyclovir 2 mg/ml with dextran sulfate 100 μg/ml and 1×10^7 pfu NV1020
# Protocol: Different modes of delivery were also examined to determine the efficacy of systemic delivery of HSV on tumor growth. Flank tumors were established in mice by subcutaneous injection of CT-26 cancer cells. The mice were then administered 1×10^7 pfu of NV1020 either intratumorally or systemically by tail vein. Tumor growth rates were then assessed by measuring the tumor volume biweekly (FIG. 8).
# Mice were anesthetized using ketamine (70 mg/kg) and xylazine (10 mg/kg). CT-26 cells (5×10^4 cells resuspended in 100 μl of PBS) were injected subcutaneously into the right flank of each mouse, using a 26-gauge needle. The cells formed a tumor, which was allowed to grow to a size of approximately 100 to 150 mm^3. Injections of the desired therapy were then initiated. Tumor volumes were generally measured biweekly. The animals were sacrificed once the tumor volume reached 1500 mm^3.
# Tail vein administration of the desired therapy was carried out using techniques commonly known in the art.
# CT-26 cells = experiment: CT-26 morphology and cell growth in culture; format: cell-based; conditions: 72 hours
# Protocol: To better understand the in vivo effects of dextran sulfate or dextran in combination with HSV, the effects of dextran sulfate on cell morphology and cell proliferation were evaluated in a cell culture model. CT-26 cells were treated with 100 μg/ml of dextran sulfate or were left untreated. After 48 hours, cell numbers and morphology were examined (FIG. 15). […] In the presence of dextran sulfate, CT-26 cells appeared more evenly spread across tissue culture dishes (panel B) as compared to the “clumped” appearance of CT-26 cells in the absence of dextran sulfate (panel A).
# The effect of dextran sulfate, acyclovir, or a combination of both dextran and acyclovir were also examined for their effects on cell growth in vitro. Cultured CT-26 cells were administered dextran sulfate (100 μg/ml), acyclovir (2 mg/ml), both dextran sulfate and acyclovir, or were left untreated (control). CT-26 cells were counted at various time points following addition each formulation.
structure (smiles),measurement,setting,value
Nc1nc2c(ncn2COCCO)c(=O)[nH]1 [acyclovir],tumor growth,CT-26 flank tumors,reduced tumor growth
same,growth of the cells (number of cells/ml) compared to untreated cells,CT-26 cells; acyclovir 2 mg/ml together with dextran sulfate 100 μg/ml,did not vary significantly
same,growth of the cells (number of cells/ml) compared to untreated cells,CT-26 cells; acyclovir 2 mg/ml,did not vary significantly
